Marks after values point to notes of the source that are not given here.
How the values were obtained:
[1] = NO-release reactivity of DNICs (total nitrate/nitrite assay); type: physicochemical; settings: dinuclear DNIC 25 μM, phosphate buffer (pH 7.4), no additive, normoxia, 37 °C
Experimental: The NO-release reactivity of DNICs in 50 mM potassium phosphate buffer (pH 7.4) under normoxia condition at 37 °C was investigated using Nitrate/Nitrite Colorimetric Assay Kit (Item No. 780001, Cayman). After addition of 10 μL of 100 mM stock solution of DNIC–COOH (or DNIC–COOMe) in DMSO to 990 μL of 50 mM potassium phosphate buffer (pH 7.4), 25 μM of DNIC–COOH (or DNIC–COOMe) was prepared by the addition of 0.125 mL of this 1 mM solution of DNIC–COOH (or DNIC–COOMe) to 4.875 mL of 50 mM potassium phosphate buffer (pH 7.4). This solution was incubated at 37 °C under normoxia condition for 0, 1, 2, 4, 8, 24, 48, and 72 h, respectively. Then, 40 μL of the solution was collected to assess the release of NO using a Nitrate/Nitrite Colorimetric Assay Kit (Item No. 780001, Cayman). After each 40 μL aliquot of the aqueous solution was mixed with 40 μL of kit assay buffer, 10 μL of Enzyme Cofactor Mixture (Item No. 780012) and 10 μL of nitrate reductase mixture (Item No. 780010) were added before this mixture solution was incubated at room temperature for 1 h. […] The absorbance at 540 nm was then recorded using a microplate reader (SpectraMax iD3, Molecular Devices, San Jose, CA) with a reference wavelength of 800 nm. […]

MSC/N2a/HCEC = assay: Whole-cell EPR, results stated jointly for MSC/N2a/HCEC; type: cell-based; settings: for tmax for cellular uptake: stated jointly for MSC/N2a/HCEC
Experimental: Cellular uptake of DNIC–COOH and intracellular formation/decomposition of mononuclear DNICs in MSC/N2a/HCEC cells were investigated using EPR spectroscopy. Briefly, cells were seeded into two (or one) 100 mm dish(es) at a density of 2 × 10^6 cells/dish and incubated at 37 °C overnight. On the next day, cells were treated with 100 μM of DNIC–COOH (or 100 μM of DNIC–COOH to N2a and 75 μM of DNIC–COOH to HCEC) and incubated for 0, 0.5, 1, 2, 3, 4, 8, and 24 h, respectively. After removal of the supernatant solution, cells were washed with DPBS before addition of 1 mL of trypsin (0.05%)/EDTA (0.53 mM) and incubation for 5 min at 37 °C. After the obtained cell suspension solutions from two 100 mm dishes were combined and centrifuged at 100g for 5 min, the supernatant was removed before addition of 100 μL of αMEM to DNIC-treated MSC (or MEM to DNIC-treated N2a and HSFM to DNIC-treated HCEC). This solution was then transferred into EPR quartz tube and frozen in N2(l) before the EPR measurements. For each measured EPR spectrum, double integration was executed to obtain the integrated EPR intensity under each condition. Moreover, time-dependent decay of integrated EPR signal intensity after treatment of DNIC–COOH was fit to pseudo-first-order kinetics in order to determine the intracellular half-life for EPR-active mononuclear DNIC. Three independent experiments were executed to measure the average half-life for intracellular decomposition of EPR-active mononuclear DNIC after treatment with DNIC–COOH at 37 °C. On the other hand, at the time point with maximum integrated EPR signal intensity, spin quantitation of intracellular EPR-active DNICs was performed using mononuclear DNIC [PPN][(NO)2Fe(S5)] as a standard according to the methodology used in the previous work.[50] Cellular uptake of DNIC–COOMe (2.5 μM to MSC, 10 μM to N2a, or 1 μM to HCEC) and intracellular formation/decomposition of EPR-active mononuclear DNICs were investigated using EPR spectroscopy in a similar manner. […]

## COC(=O)CC[SH]1[Fe]([N]=O)([N]=O)[SH](CCC(=O)OC)[Fe]1([N]=O)[N]=O (centres unmarked) [DNIC–COOMe, [(NO)2Fe(μ-SCH2CH2COOCH3)2Fe(NO)2]]
[1]
  t1/2 for release of NO from DNICs: 9.1 ± 0.6 ^e h
MSC/N2a/HCEC; MSC/N2a/HCEC, hypoxia
  tmax for intracellular assembly of mononuclear DNICs: 30 min
MSC/N2a/HCEC
  tmax for cellular uptake: 30 min

## O=[N][Fe]1([N]=O)[SH](CCC(=O)O)[Fe]([N]=O)([N]=O)[SH]1CCC(=O)O (centres unmarked) [DNIC–COOH, [(NO)2Fe(μ-SCH2CH2COOH)2Fe(NO)2]]
[1]
  t1/2 for release of NO from DNICs: 10.7 ± 1.4 ^e h
MSC/N2a/HCEC
  tmax for cellular uptake: 120 to 480 min

Reference: paper PMC11040670, “Mechanistic and Kinetic Insights into Cellular Uptake of Biomimetic Dinitrosyl Iron Complexes and Intracellular Delivery of NO for Activation of Cytoprotective HO-1” (JACS Au, 2024)
